Experiments:
[1] = system: Con A-modified electrode interfaces; experiment: Antibody selectivity of Con A-modified electrode interfaces; format: binding; conditions: 1.0 mg/mL nonspecific protein; Figure S7
[2] = system: DO-1 peptide/HRP-IONPs with Con A-modified SPCEs; experiment: Assay specificity (SWV responses of interferents); conditions: equivalent MAC immunoisolation conditions, Figure S17
Experimental: Following a 10 min incubation of the antibody–IONP immunocomplexes on Con A-modified SPCEs, and subsequent washing with PBS, 100 μL of the high-sensitivity TMB substrate was added and left to react for 5 min. Square-wave voltammetry (SWV) scans were then conducted from +1.0 to −0.5 V (vs Ag/AgCl), at an amplitude of 20 mV, a potential step of 2 mV, and a frequency of 50 Hz. […] Recovery assays were conducted using DO-1 antibodies spiked into 1.0 mg/mL BSA or 1.0% human serum (human male AB plasma, Sigma, UK).
To evaluate the performance in spiked samples, recovery tests were performed in 1.0 mg/mL BSA and diluted human serum.

Concanavalin A = experiment: SPR + other: electrochemical impedance spectroscopy; SPR at Con A-saturated gold chips with a BSA-saturated surface as reference (298 K, 30 uL/min, 10 mM PBS pH 7.4); EIS at Con A-modified SPCEs in 5 mM [Fe(CN)6]3-/4- PBS pH 7.4; both responses fitted to Langmuir-Freundlich isotherms, Kd from the plot mean

With bovine serum albumin [BSA] the “Response at Con A interface relative to DO-1 antibody” value [1] was under 10% and the “Voltammetric response relative to 50 ng/mL DO-1 antibody” value ([2]; 1.0 mg/mL) was under 10%.
With immunoglobulin G the “Voltammetric response relative to 50 ng/mL DO-1 antibody” value ([2]; 10.0 μg/mL (antibody control)) was under 10%.
Work on monoclonal DO-1 antibody yielded a Kd (Concanavalin A) of 13.6 nM.

Source: PMC10964233, “Antigen-Mimic Nanoparticles in Ultrasensitive on-Chip Integrated Anti-p53 Antibody Quantification” (ACS Sensors, 2024)
